Patent US10945972B2, “Particulate materials” (Nektar Therapeutics, priority 2002, dated 2021)

What was measured:
Assay type in all cases: physicochemical
[1] = Dynamic vapor sorption (Example 8); details: 25° C.
Method: The moisture sorption isotherm of each powder at 25° C. was measured using a dynamic vapour sorption (DVS) instrument made by Surface Measurement Systems, UK. This instrument gravimetrically measures uptake and loss of water vapor on a substrate by means of a recording microbalance with a resolution of ±0.1 μg. In the first step of the experimental run, the sample was dried at 25° C. and 0% relative humidity (RH) for at least 600 minutes to bring the sample to near zero wt % H2O. Then, the instrument was programmed to increase the RH in steps of 5% RH from 0% to 90% RH and decrease the RH in steps of 10% RH from 90% to 0% RH. A criterion of dm/dt=0.005%/min was chosen for the system to hold at each RH step before proceeding to the next RH step. Sample masses between 30 and 100 mg were used in this study. The change in mass (%) is expressed in terms of g H2O per 100 g of dry substance.

[2] = Differential scanning calorimetry (Example 8); details: DSC, 10° C. min^−1
Method: Prior to sample analysis, a baseline was obtained which was used as a background. […] Temperature and enthalpy were calibrated with the standard materials indium (melting point=156.6° C.) and zinc (melting point=419.5° C.). Samples (1-10) were accurately weighed into pierced, crimped aluminium pans and heated at 10° C. min^−1 over a heating range of 25-290° C. under a nitrogen purge. A chiller unit was used in conjunction with the calorimeter to attain the lower temperatures.

[3] = Inverse gas chromatography of TBS (Example 8)
Method: An empty GC column was uniformly packed with the powder of interest (TBS). Pre-silanized commercially available straight glass columns of 30 cm length with a 3 mm internal diameter were used in this investigation. The silanation procedure was necessary to minimize active sites on the inner glass surfaces, which strongly interact with polar probes. Each column was packed at the detector end with a small amount of silanised glass wool, was clipped to a stand and powder was added through a glass funnel with the aid of a mechanical column packer (tapping) to improve powder flow and remove any air gaps. […] A. Hewlett Packard 6890 Series Gas Chromatograph (GC) (Hewlett Packard, Penna, USA) oven equipped with an autosampler was used to control the solvent temperature. The 6890 GC data acquisition system was used to record data from a thermal conductivity detector (TCD) and flame ionisation detector (FID) with the instrument modified for IGC by Surface Measurement Systems (SMS), Manchester, UK. The combination of detectors allowed sensitive analysis of both organic vapour elution and water (although RH was not raised above 0% for these experiments).
The whole system was fully automated by control software (SMS iGC Controller v1.3) and the data analyzed using SMS iGC Analysis macros. Prior to analysis, each column was equilibrated at 30° C. and 0% relative humidity (RH) for 5 hours by passing dry helium gas through the column. Helium gas was also used as the carrier gas. Hydrogen and compressed air flow rates were set at 40 and 450 ml min respectively for the FID. The chromatograph injection port was maintained at 80° C., TCD detector at 150° C. and the FID detector at 150° C. Column temperature was set at 30° C. throughout analysis. Data were obtained by flowing helium gas at 10 ml min^−1 through the sinalized glass column packed with a known weight of powdered material and injecting small amounts (concentration P/Po=0.05) of a range of probe vapors with different polarities. The retention times of the probes were measured using SMS iGC Controller v1.3 software, at infinite dilution or near zero surface coverage (equivalent to 10^−4-10^−7 μl of liquid) where retention is independent of the quantity of probe injected. For each sample, two columns were prepared and analysed by employing a method based on standard settings, which allows the precise control and measurement of experimental variables. This is essential in producing meaningful results. The data were used to calculate the dispersive and non-dispersive forces acting at TBS particle surfaces using the method developed by Schultz and co-workers (J. Schultz, L. Lavielle and C. Martin. The role of the interface in carbon fibre-epoxy composites, J. Adhesion, 23, 45-60 (1987)).

For `CC(C)(C)NCC(O)c1cc(O)cc(O)c1` (stereo not drawn) [TSB SEDS, terbutaline sulphate], the “moisture uptake compared with micronised sample” value [1] was “slightly higher moisture uptake than the micronised sample”, the “Enthalpy of Fusion” value ([2]; listed as TBS 2) was 88.68 J/g and the “Enthalpy of Fusion” value ([2]; listed as TBS2) was 88.68 J/g. The “γs^D mJm^−2” value ([3]; 30° C., 0% RH, listed as TBS 2) was 55.05 mJm^−2, the KA ([3]; listed as TBS 2) was 0.778 and the “−ΔGA^SP (kJ/mol) Acetone” value ([3]; probe acetone, listed as TBS 2) was 10.42 kJ/mol. For the same compound, the “−ΔGA^SP (kJ/mol) Dioxane” value ([3]; probe dioxane) was 14.20 kJ/mol, the “−ΔGA^SP (kJ/mol) Ethyl acetate” value ([3]; probe ethyl acetate, listed as TBS 2) was 13.76 kJ/mol and the “−ΔGA^SP (kJ/mol) Toluene” value ([3]; probe toluene, listed as TBS 2) was 2.85 kJ/mol.
